Measured values as given in PubChem BioAssay (NCI).
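Compound exposure: 48 hours, 5 concentrations, 96-well plates. GI50 = concentration required for 50% inhibition of growth. At the TGI there is no net growth.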

What was measured:
Test in all cases: NCI tumour cell line growth inhibition, 48 h
[1] = tested on: DMS 114 small cell lung
[2] = tested on: LXFL 529 NSCLC
[3] = tested on: M19-MEL melanoma
[4] = tested on: DLD-1 colon
[5] = tested on: KM20L2 colon
[6] = tested on: DMS 273 small cell lung
[7] = tested on: DU-145 prostate
[8] = tested on: BT-549 breast
[9] = tested on: NCI/ADR-RES ovarian
[10] = tested on: XF 498 CNS

CN(C)CC1CCCCCCCCCCCCC(CN(C)C)C1=O (stereo not given)
TGI [1]: 31.3 µM | TGI [2]: 28.1 µM | TGI [3]: 25.1 µM | TGI [4]: 29.6 µM | TGI [5]: 24.9 µM | TGI [6]: 22.9 µM

Brc1ccc(Nc2nc3ccccc3nc2Nc2ccc(Br)cc2)cc1
GI50 [7]: 0.644 µM | TGI [7]: 12.4 µM | GI50 [8]: 2.44 µM | TGI [8]: 7.98 µM | GI50 [9]: 1.62 µM | TGI [9]: 10.5 µM

C=C1C(=O)c2cc3c(cc2C(c2cc(OC)c(OC)c(OC)c2)[C@@H]1C(=O)O)OCO3 (stereo not given in full)
TGI [1]: > 100 µM | TGI [2]: > 100 µM | TGI [3]: > 100 µM | TGI [4]: > 100 µM

Cn1c2cc([N+](=O)[O-])ccc2c(=O)c2c(O)cc3c(c21)C=CC(C)(C)O3
TGI [10]: 47.7 µM | TGI [2]: > 100 µM | TGI [4]: > 100 µM | TGI [5]: > 100 µM | TGI [6]: > 100 µM

NCCCNc1nc2ccc(Cl)cc2c2c(=O)c3cc(F)ccc3sc12
GI50 [7]: 1.97 µM | TGI [7]: 4.05 µM | GI50 [8]: 14.3 µM | TGI [8]: 29.6 µM | GI50 [9]: 2.23 µM | TGI [9]: 5.62 µM

CCOC(=O)[C@@H](C)C[C@H](Cc1ccccc1)NC(=O)c1csc([C@@H](C[C@H](C(C)C)N(C)C(=O)[C@@H](NC(=O)[C@H]2C[C@H](O)CCN2C)C(C)C)OC(C)=O)n1
GI50 [7]: 0.00421 µM | GI50 [8]: 0.00283 µM | TGI [8]: 0.0915 µM | GI50 [9]: 2.67 µM | TGI [9]: > 16.7 µM

O=C1/C(=C\c2ccccc2)CN(C(=O)c2ccccc2)C/C1=C\c1ccccc1
GI50 [7]: 5.02 µM | TGI [7]: 16.4 µM | GI50 [8]: 1.86 µM | TGI [8]: 3.58 µM | GI50 [9]: 3.69 µM | TGI [9]: 37.6 µM

CCC(C)CC(C)C(=O)c1c(O)ccn(O)c1=O (stereo not given)
GI50 [7]: 2.1 µM | TGI [7]: > 100 µM | GI50 [8]: 2.56 µM | TGI [8]: 37.9 µM | GI50 [9]: 0.395 µM | TGI [9]: 5.15 µM

COc1cc2c(cc1OCCCCn1c(-c3cccs3)nc3ccccc31)N=C[C@@H]1CCCN1C2=O
GI50 [7]: 1.32 µM | TGI [7]: 6.74 µM | GI50 [8]: 0.417 µM | TGI [8]: 1.2 µM | GI50 [9]: 3.24 µM | TGI [9]: 13.9 µM

Cc1cc(C(O)(c2ccc(Nc3ccccc3)cc2)c2ccc(Nc3ccc(S(=O)(=O)O)cc3)cc2)ccc1N (stereo not given)
GI50 [7]: 1.32 µM | TGI [7]: 2.67 µM | GI50 [8]: 1.84 µM | TGI [8]: 5.61 µM | GI50 [9]: 1.83 µM | TGI [9]: 4.58 µM

O=C([O-])CCc1ccccc1.O=C([O-])CCc1ccccc1.O=C([O-])CCc1ccccc1.O=C([O-])CCc1ccccc1.[Mo+2].[Mo+2]
GI50 [1]: > 100 µM | TGI [1]: > 100 µM | GI50 [2]: > 100 µM | TGI [2]: > 100 µM | GI50 [3]: > 100 µM | TGI [3]: > 100 µM | GI50 [4]: > 100 µM | TGI [4]: > 100 µM | GI50 [5]: > 100 µM | TGI [5]: > 100 µM

CCOc1cc(/C=C/C(=O)C(C(=O)/C=C/c2ccc(OC(=O)CNc3nnc(C)s3)c(OCC)c2)C(=O)CNc2nnc(C)s2)ccc1OC(=O)CNc1nnc(C)s1
GI50 [7]: 1.72 µM | TGI [7]: 4.18 µM | GI50 [8]: 1.98 µM | TGI [8]: 5.33 µM | GI50 [9]: 3.51 µM | TGI [9]: > 71.2 µM

N#Cc1c(-c2ccccc2)cc(-c2cccs2)c(C#N)c1N
TGI [10]: > 100 µM | TGI [2]: > 100 µM | TGI [4]: > 100 µM | TGI [5]: > 100 µM | TGI [6]: > 100 µM

CS(=N)(=O)CCC(N)P(=O)(O)O (stereo not given)
TGI [7]: > 100 µM | TGI [8]: > 100 µM | TGI [9]: > 100 µM

CCCOc1ccc(/C=N/Nc2cc(C)nc3ccc(Cl)cc23)cc1
GI50 [7]: 1.9 µM | TGI [7]: 3.42 µM | GI50 [8]: 2.17 µM | TGI [8]: 5.46 µM | GI50 [9]: 1.9 µM | TGI [9]: 3.81 µM

O=C(Nc1ccc(I)cc1)c1cccc([N+](=O)[O-])c1O
GI50 [7]: 6.46 µM | TGI [7]: > 100 µM | GI50 [8]: 3.01 µM | TGI [8]: 19 µM | GI50 [9]: 2.94 µM | TGI [9]: > 100 µM

N#Cc1ccc(C(C2C(=O)NC(=O)NC2=O)C2C(=O)NC(=O)NC2=O)cc1
TGI [2]: > 100 µM | TGI [3]: > 100 µM | TGI [5]: > 100 µM | TGI [6]: > 100 µM

O=[N+]([O-])c1ccc(/C(Cl)=C/c2ccc(/C=C(\Cl)c3ccc([N+](=O)[O-])cc3[N+](=O)[O-])cc2)c([N+](=O)[O-])c1
TGI [1]: > 100 µM | TGI [2]: > 100 µM | TGI [3]: > 100 µM | TGI [4]: > 100 µM | TGI [6]: > 100 µM

CC(=O)SC(SC(C)=O)SC(C)=O
TGI [1]: > 100 µM | TGI [2]: > 100 µM | TGI [3]: > 100 µM | TGI [4]: > 100 µM | TGI [5]: > 100 µM | TGI [6]: > 100 µM

FC(F)(F)c1cc(-c2ncn(/C=C\c3nnco3)n2)cc(C(F)(F)F)c1
GI50 [7]: 0.315 µM | TGI [7]: 22 µM | GI50 [8]: 0.0719 µM | TGI [8]: 2.44 µM | GI50 [9]: 0.304 µM | TGI [9]: > 63.5 µM

O=c1[nH]c(F)nc2c1ncn2C1OC(CO)C(O)C1O (stereo not given)
GI50 [7]: > 100 µM | TGI [7]: > 100 µM | GI50 [8]: > 100 µM | TGI [8]: > 100 µM | GI50 [9]: > 100 µM | TGI [9]: > 100 µM

CCCCCCc1cc2cc(-c3csc(/C=C/c4ccccc4)n3)c(=O)oc2cc1O
GI50 [7]: 12.8 µM | TGI [7]: 44.7 µM | GI50 [8]: 35.6 µM | TGI [8]: > 100 µM | GI50 [9]: 4.53 µM | TGI [9]: 17.7 µM

O=C(O)c1ccc(Oc2nc3ccccc3s2)cc1
TGI [7]: > 100 µM | TGI [8]: > 100 µM | TGI [9]: > 100 µM

COc1ccc(C2CC(c3ccc4ccccc4c3)=NN2c2nc(O)c(C3=c4cc(OC)ccc4=NC3=O)s2)cc1 (stereo not given)
GI50 [7]: 0.0449 µM | TGI [7]: 14.1 µM | GI50 [8]: 0.978 µM | TGI [8]: 17.5 µM | GI50 [9]: 1.89 µM | TGI [9]: > 100 µM

NS(=O)(=O)c1ccc(N=C2C(=O)Nc3ccccc32)cc1
TGI [7]: > 100 µM | TGI [8]: > 100 µM | TGI [9]: > 100 µM

COC1=CC(=O)OC(/C=C(C)/C=C/C2=C(C)CCCC2(C)C)C1 (stereo not given)
TGI [1]: > 100 µM | TGI [2]: > 100 µM | TGI [3]: > 100 µM | TGI [4]: > 100 µM | TGI [5]: > 100 µM | TGI [6]: > 100 µM

O=c1[nH]c2ccccc2n2cc3ccccc3c12
GI50 [7]: 7.61 µM | TGI [7]: 37.7 µM | GI50 [8]: 18.9 µM | TGI [8]: 64.3 µM | GI50 [9]: 6.45 µM | TGI [9]: 32.1 µM

CC1=NC=C(O)c2ccccc2O1
TGI [1]: > 100 µM | TGI [2]: > 100 µM | TGI [3]: > 100 µM | TGI [4]: > 100 µM | TGI [5]: > 100 µM | TGI [6]: > 100 µM
